Source: ChEMBL document CHEMBL1201862, “PubChem BioAssay data set” (2004)
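Each compound was tested at five concentrations against cells in 96-well plates for 48 hours. GI50: concentration for 50% inhibition of growth.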 The source made the active and inactive calls. No stated cut-off is given here; in the data, active = GI50 up to about 1.1 µM and inactive = higher.

Tests used:
Assay in all cases: DTP human tumour cell line panel, 48 h
786-0 = test system: 786-0
ACHN = test system: ACHN
CAKI-1 = test system: CAKI-1
HCT-15 = test system: HCT-15
HOP-62 = test system: HOP-62
HOP-92 = test system: HOP-92
MCF7 = test system: MCF7
MDA-MB-231 = test system: MDA-MB-231
MDA-MB-435 = test system: MDA-MB-435
MDA-N = test system: MDA-N
NCI-H226 = test system: NCI-H226
NCI-H460 = test system: NCI-H460
OVCAR-8 = test system: OVCAR-8
RPMI-8226 = test system: RPMI-8226
RXF 393 = test system: RXF 393
SK-MEL-28 = test system: SK-MEL-28
SK-OV-3 = test system: SK-OV-3
SNB-19 = test system: SNB-19
SNB-75 = test system: SNB-75
U-251 = test system: U-251

Row | Compound | GI50 (786-0) | GI50 (ACHN) | GI50 (CAKI-1) | GI50 (HCT-15) [µM] | GI50 (HOP-62) | GI50 (HOP-92) | GI50 (MCF7) | GI50 (MDA-MB-231) | GI50 (MDA-MB-435) | GI50 (MDA-N) | GI50 (NCI-H226) | GI50 (NCI-H460) | GI50 (OVCAR-8) | GI50 (RPMI-8226) | GI50 (RXF 393) | GI50 (SK-MEL-28) | GI50 (SK-OV-3) | GI50 (SNB-19) | GI50 (SNB-75) | GI50 (U-251)
1 | N=C(N)SCCCN | 4.71 µM (inactive) | 4.29 µM (inactive) | 4.32 µM (inactive) | 5.02 | 12.1 µM (inactive) | 4.94 µM (inactive) | 5.5 µM (inactive) | 3.3 µM (inactive) | 3.18 µM (inactive) | 3.95 µM (inactive) | 18.3 µM (inactive) | 4.13 µM (inactive) | 3.87 µM (inactive) | 18.5 µM (inactive) | 4.29 µM (inactive) | 28.2 µM (inactive) | 22.4 µM (inactive) | 20.7 µM (inactive) | 33.7 µM (inactive) | 6.11 µM (inactive)
2 | O=c1oc2ccc([N+](=O)[O-])cc2c(Nc2ccc3c(c2)Sc2ccccc2O3)c1[N+](=O)[O-] | 20.3 µM (inactive) | 27 µM (inactive) | 22.3 µM (inactive) | 17.7 | 21.3 µM (inactive) | 16.3 µM (inactive) | 22.1 µM (inactive) | 18.6 µM (inactive) | 30.8 µM (inactive) | 28.6 µM (inactive) | 18.8 µM (inactive) | 20.2 µM (inactive) | 25.3 µM (inactive) | 9.2 µM (inactive) | 22.4 µM (inactive) | 25.9 µM (inactive) | 24 µM (inactive) | 17.9 µM (inactive) | 39.6 µM (inactive) | 17.5 µM (inactive)
3 | CCCCCCCCCCCCc1ccsc1-c1ccc(-c2ccc(-c3sccc3CCCCCCCCCCCC)s2)s1 | > 100 µM (inactive) | > 100 µM (inactive) | > 100 µM (inactive) | > 100 | > 100 µM (inactive) | > 100 µM (inactive) | > 100 µM (inactive) | > 100 µM (inactive) | > 100 µM (inactive) | > 100 µM (inactive) | > 100 µM (inactive) | > 100 µM (inactive) | > 100 µM (inactive) | > 100 µM (inactive) | > 100 µM (inactive) | > 100 µM (inactive) | > 100 µM (inactive) | > 100 µM (inactive) | > 100 µM (inactive) | > 100 µM (inactive)
4 | CSc1ccc(C(=O)C(=O)c2ccc(SC)s2)s1 | 6.64 µM (inactive) | > 10 µM (inactive) | > 10 µM (inactive) | > 10 | 3.93 µM (inactive) | > 10 µM (inactive) | 5.58 µM (inactive) | > 10 µM (inactive) | 4.34 µM (inactive) | 4.6 µM (inactive) | > 10 µM (inactive) | > 10 µM (inactive) | > 10 µM (inactive) | 4.86 µM (inactive) | > 10 µM (inactive) | > 10 µM (inactive) | > 10 µM (inactive) | > 10 µM (inactive) | > 10 µM (inactive) | > 10 µM (inactive)
5 | Nc1ccccc1SC(C[N+](=O)[O-])c1ccc2c(c1)OCO2 (stereo not given) | 1.66 µM (inactive) | 6.46 µM (inactive) | 13.7 µM (inactive) | 3.01 | 2.12 µM (inactive) | 15.6 µM (inactive) | 2.99 µM (inactive) | 7.1 µM (inactive) | 2.32 µM (inactive) | 1.75 µM (inactive) | 11.2 µM (inactive) | 2.12 µM (inactive) | 2.78 µM (inactive) | 1.22 µM (inactive) | 1.8 µM (inactive) | 3.4 µM (inactive) | 4.54 µM (inactive) | 12 µM (inactive) | 2.34 µM (inactive) | 2.64 µM (inactive)
6 | CCOC(=O)C(NC(=O)CC(C)C)(N1CCN(c2cc3c(cc2F)c(=O)c(C(=O)O)cn3C2CC2)CC1)C(F)(F)F (stereo not given) | 29.5 µM (inactive) | 12.5 µM (inactive) | 24.9 µM (inactive) | 10 | 36.6 µM (inactive) | 9.57 µM (inactive) | 15.6 µM (inactive) | 22 µM (inactive) | 21.9 µM (inactive) | 20.3 µM (inactive) | 20.7 µM (inactive) | 28.1 µM (inactive) | 21.1 µM (inactive) | 20.9 µM (inactive) | 17.2 µM (inactive) | 20.9 µM (inactive) | 24 µM (inactive) | 28.8 µM (inactive) | 21.4 µM (inactive) | 14.7 µM (inactive)
7 | O=C(NNC(=O)c1ccncc1)C(=O)Nc1cc(Cl)c(Cl)cc1Cl | > 100 µM (inactive) | > 100 µM (inactive) | > 100 µM (inactive) | > 100 | > 100 µM (inactive) | > 100 µM (inactive) | > 100 µM (inactive) | > 100 µM (inactive) | > 100 µM (inactive) | > 100 µM (inactive) | > 100 µM (inactive) | > 100 µM (inactive) | > 100 µM (inactive) | > 100 µM (inactive) | > 100 µM (inactive) | > 100 µM (inactive) | > 100 µM (inactive) | > 100 µM (inactive) | > 100 µM (inactive) | > 100 µM (inactive)
8 | C/C=C(/CBr)CCC(Br)C(C)(C)Cl.C/C=C(\CBr)CCC(Br)C(C)(C)Cl (stereo not given) | > 10 µM (inactive) | > 10 µM (inactive) | > 10 µM (inactive) | > 10 | > 10 µM (inactive) | > 10 µM (inactive) | > 10 µM (inactive) | > 10 µM (inactive) | > 10 µM (inactive) | > 10 µM (inactive) | > 10 µM (inactive) | > 10 µM (inactive) | > 10 µM (inactive) | > 10 µM (inactive) | > 10 µM (inactive) | > 10 µM (inactive) | > 10 µM (inactive) | > 10 µM (inactive) | > 10 µM (inactive) | > 10 µM (inactive)
9 | COC(=O)C1Cc2c(OC)ccc(OC)c2CC(C(=O)OC)C1=O (stereo not given) | > 100 µM (inactive) | 63.5 µM (inactive) | > 100 µM (inactive) | > 100 | > 100 µM (inactive) | 44 µM (inactive) | > 100 µM (inactive) | > 100 µM (inactive) | > 100 µM (inactive) | > 100 µM (inactive) | > 100 µM (inactive) | > 100 µM (inactive) | > 100 µM (inactive) | > 100 µM (inactive) | > 100 µM (inactive) | > 100 µM (inactive) | > 100 µM (inactive) | > 100 µM (inactive) | > 100 µM (inactive) | > 100 µM (inactive)
10 | CNC(=O)c1nn[nH]c1O | > 100 µM (inactive) | > 100 µM (inactive) | > 100 µM (inactive) | > 100 | > 100 µM (inactive) | > 100 µM (inactive) | > 100 µM (inactive) | > 100 µM (inactive) | > 100 µM (inactive) | > 100 µM (inactive) | > 100 µM (inactive) | > 10 µM (inactive) | > 100 µM (inactive) | > 100 µM (inactive) | > 100 µM (inactive) | > 100 µM (inactive) | > 100 µM (inactive) | > 100 µM (inactive) | 74.1 µM (inactive) | > 100 µM (inactive)
